Where two headings read alike, the source gives them in different places. Marks after values point to notes of the source that are not given here.
Legend:
[1] = test system: Influenza virus; experiment: Impact of the drugs on virus-induced cytopathy (MTT, ER %); assay type: cell-based
[2] = Solubility of the synthesized white solid; assay type: physicochemical; settings: white solid of Embodiment 1
[3] = test system: Adenovirus (AdV); experiment: Impact of the drugs on virus-induced cytopathy (MTT, ER %); assay type: cell-based
[4] = test system: enterovirus EV71; experiment: as above; assay type: cell-based
[5] = test system: respiratory syncytical virus (RSV); experiment: as above; assay type: cell-based
[6] = test system: Coxsackie virus A16 (CoxA16); experiment: as above; assay type: cell-based
[7] = test system: Coxsackie virus B3 (CVB3); experiment: as above; assay type: cell-based
[8] = test system: Vero cells; experiment: Drug cytotoxicity assay (MTT) on Vero cells; assay type: cell-based, African green monkey; settings: 72 h, Probit regression
Description: Vero cells were subcultured for 1-2 days to form a film. […] The digestion was drained after needle-like holes occurred on the cell surface, then cells were dispersed with a few milliliters of medium, counted, then diluted to about 5×10^7 cells/L with DMEM containing 10% fetal bovine serum and transferred to a 96-pore culture plate until monolayer formed.
Cytotoxicity test: the drugs were diluted according to the concentrations shown in Table 1-1 for cytotoxicity assays.
Different concentrations of drugs diluted with the above maintenance medium (DMEM containing 2% fetal calf serum) were added dropwise to Vero monolayer cells with 0.2 ml per pore, and for each concentration, the drugs were added in sextuplicate in 6 pores respectively. In addition, 6 pores were set up as normal control (without drugs) while another 6 pores as blank control (medium only). Cells were grown in a 37° C. incubator under 5% CO2. CPE was visualized under the invert microscope and recorded daily. After 72 h, 20 μL MTT solution (5 mg·mL^−1) was added into each pore and incubated for 4 h. The culture medium in each pore was sucked and discarded, 100 μL DMSO was added to each pore. Then the culture was shaken for 5 min, measured OD value at 492 nm to calculate the cell survival ratio. The cell survival ratio was analyzed using a Probit regression model in SPSS 18.0 statistical software, and the maximal nontoxic concentration (TC0) and median toxic concentration (TC50) of drugs against Vero cells were calculated.

[9] = test system: parainfluenza virus; assay type: in vivo, Kunming mice
[10] = test system: influenza virus; assay type: in vivo, Kunming mice
[11] = test system: Parainfluenza virus; experiment: Impact of the drugs on virus-induced cytopathy (MTT, ER %); assay type: cell-based
[12] = test system: Herpes simplex virus type I (HSV-1); experiment: as above; assay type: cell-based
[13] = summary of Table 1-3, Vero cells
[14] = mice, parainfluenza virus 15LD50 nasally, 3.25 mg/kg/d (low-dose) intragastric, 5 days
[15] = mice, parainfluenza virus 15LD50 nasally, 19.5 mg/kg/d intragastric, 5 days
[16] = mice, influenza virus 15LD50 nasally, 19.5 mg/kg/d intragastric, 5 days

In the case of phillyrin, the “antiviral efficiency (ER %)” value [1] is reported as 75.38** %, the “inhibitory effect (in words)” value [1, 13] is reported as “significant” and the “solubility (in words)” value [2] is reported as “soluble in chloroform and methanol”. The “antiviral efficiency (ER %)” value [3] was 75.14** %, the “inhibitory effect (in words)” value [3, 13] was “significant” and the “antiviral efficiency (ER %)” value [4] was 84.85** %. The “inhibitory effect (in words)” value [4, 13] was “significant”, the “antiviral efficiency (ER %)” value [5] was 80.40** % and the “inhibitory effect (in words)” value [5, 13] was “significant”. The “antiviral efficiency (ER %)” value [6] was 75.08** %, the “inhibitory effect (in words)” value [6, 13] was “significant” and the “antiviral efficiency (ER %)” value [7] was 75.27** %. For the same compound, the “inhibitory effect (in words)” value [7, 13] was “significant”, the “Maximal non-cytotoxic concentration (TC0)” value [8] was 0.006 g/L and the “Median toxic concentration (TC50)” value [8] was 550 µg/mL. For the same compound, the “Lung index (X ± S)” value [9, 14] was 1.360 ± 0.052, the “Lung index Inhibitory rate (%)” value [9, 14] was 15.03% and the “Lung index (X ± S)” value ([9]; mouse, in vivo, 13 mg/kg/day) was 1.2297 ± 0.071. The “Lung index Inhibitory rate (%)” value ([9]; mouse, in vivo, 13 mg/kg/day) was 19.01%, the “effect on mice viral pneumonia (in words)” value ([9]; parainfluenza virus, 3.25 to 13.0 mg/kg/d) was “significant inhibitory effect” and the “hemagglutination titers (in words)” value ([9]; parainfluenza virus, 3.25 to 13.0 mg/kg/d, compared to virus control group) was “greatly reduce”. For the same compound, the “effect on mice viral pneumonia (in words)” value ([10]; influenza virus, 3.25 to 13.0 mg/kg/d) was “significant inhibitory effect”, the “hemagglutination titers (in words)” value ([10]; influenza virus, 3.25 to 13.0 mg/kg/d, compared to virus control group) was “greatly reduce” and the “Lung index (X ± S)” value ([10]; mouse, in vivo, 3.25 mg/kg/day) was 1.339 ± 0.045. The “Lung index Inhibitory rate (%)” value ([10]; mouse, in vivo, 3.25 mg/kg/day) was 10.82%, the “Lung index (X ± S)” value ([10]; mouse, in vivo, 13 mg/kg/day) was 1.290 ± 0.041 and the “Lung index Inhibitory rate (%)” value ([10]; mouse, in vivo, 13 mg/kg/day) was 14.51%. For the same compound, the “antiviral efficiency (ER %)” value [11] was 84.96** %, the “inhibitory effect (in words)” value [11, 13] was “significant” and the “antiviral efficiency (ER %)” value [12] was 85.00** %. For the same compound, the “inhibitory effect (in words)” value [12, 13] was “significant”.
With CCOC(=O)C1=C[C@@H](OC(CC)CC)[C@H](NC(C)=O)[C@@H](N)C1 [Oseltamivir phosphate, reference compound] the “antiviral efficiency (ER %)” value ([1]; Vero cells, 100 TCID50, 72 h, MTT, drug at maximal non-cytotoxic concentration or so (Table 1-2 last row: phillyrin 0.01, ribavirin 0.70, oseltamivir phosphate 0.30 g/L)) was 81.76** %, the “antiviral efficiency (ER %)” value [3] was 10.31% and the “antiviral efficiency (ER %)” value [4] was 51.86%. The “antiviral efficiency (ER %)” value [5] was 37.60%, the “antiviral efficiency (ER %)” value [6] was 2.95% and the “antiviral efficiency (ER %)” value [7] was 1.64%. For the same compound, the “Maximal non-cytotoxic concentration (TC0)” value [8] was 0.28 g/L, the “Median toxic concentration (TC50)” value [8] was 832 µg/mL and the “Lung index (X ± S)” value [9, 15] was 1.256 ± 0.057. The “Lung index Inhibitory rate (%)” value [9, 15] was 21.56%, the “Lung index (X ± S)” value [10, 16] was 1.191 ± 0.062 and the “Lung index Inhibitory rate (%)” value [10, 16] was 20.71%. The “antiviral efficiency (ER %)” value [11] was 94.52** % and the “antiviral efficiency (ER %)” value [12] was 66.56** %.
